Article PMC11742723, “The clinical-stage drug BTZ-043 accumulates in murine tuberculosis lesions and efficiently acts against Mycobacterium tuberculosis” (Nature Communications, 2025)

Tested on: Mtb
Type: cell-based, Mycobacterium tuberculosis

C[C@H]1COC2(CCN(c3nc(=O)c4cc(C(F)(F)F)cc([N+](=O)[O-])c4s3)CC2)O1 [BTZ-043]
effect on mycobacterial growth on agar containing BTZ-043 (1 ng/mL BTZ-043, bacteria from BTZ-043 treated BALB/c mice, untreated mice and H37Rv): did not restrict mycobacterial viability
growth of Mtb from drug treated IL-13tg mice on agar containing BTZ-043 (5 or 10 ng/mL BTZ-043, IL-13tg mice 250 mg/kg/day 10 days): did not grow
mycobacterial growth on agar containing BTZ-043 (5 or 10 ng/mL BTZ-043, bacteria from BTZ-043 treated BALB/c mice, untreated mice and H37Rv): No growth
